Measured values as given in PubChem BioAssay (NCI).
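Cells were grown in 96-well plates and exposed to each compound for 48 hours at five concentrations; endpoints were interpolated linearly between bracketing concentrations, or set to the highest concentration if not reached. At the TGI there is no net growth.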

Columns and labels:
Experiment in all cases: NCI tumour cell line growth inhibition, 48 h
[1] = tested on: SK-MEL-2 melanoma
[2] = tested on: HL-60(TB) leukemia
[3] = tested on: SF-539 CNS
[4] = tested on: CAKI-1 renal
[5] = tested on: OVCAR-4 ovarian
[6] = tested on: HOP-62 NSCLC
[7] = tested on: CCRF-CEM leukemia
[8] = tested on: HOP-18 NSCLC
[9] = tested on: KM20L2 colon
[10] = tested on: SK-MEL-5 melanoma
[11] = tested on: DMS 114 small cell lung
[12] = tested on: RXF 393 renal
[13] = tested on: HCT-15 colon
[14] = tested on: OVCAR-8 ovarian
[15] = tested on: HT29 colon
[16] = tested on: U251 CNS
[17] = tested on: DLD-1 colon
[18] = tested on: UO-31 renal
[19] = tested on: SR leukemia
[20] = tested on: NCI-H522 lung
[21] = tested on: EKVX NSCLC
[22] = tested on: SK-OV-3 ovarian
[23] = tested on: KM12 colon
[24] = tested on: M19-MEL melanoma
[25] = tested on: SNB-19 CNS
[26] = tested on: SW-620 colon
[27] = tested on: 786-0 renal
[28] = tested on: TK-10 renal
[29] = tested on: A498 renal
[30] = tested on: LXFL 529 NSCLC
[31] = tested on: HCT-116 colon
[32] = tested on: IGROV1 ovarian
[33] = tested on: NCI-H226 lung
[34] = tested on: XF 498 CNS
[35] = tested on: OVCAR-3 ovarian
[36] = tested on: SN12C renal
[37] = tested on: UACC-62 melanoma
[38] = tested on: DMS 273 small cell lung
[39] = tested on: ACHN renal
[40] = tested on: NCI-H460 lung
[41] = tested on: OVCAR-5 ovarian
[42] = tested on: M14 melanoma
[43] = tested on: SNB-75 CNS
[44] = tested on: HOP-92 NSCLC
[45] = tested on: MOLT-4 leukemia
[46] = tested on: SF-295 CNS
[47] = tested on: K-562 leukemia
[48] = tested on: A549 NSCLC
[49] = tested on: MALME-3M melanoma
[50] = tested on: NCI-H23 lung
[51] = tested on: RPMI-8226 leukemia
[52] = tested on: LOX IMVI melanoma
[53] = tested on: SNB-78 CNS
[54] = tested on: SK-MEL-28 melanoma
[55] = tested on: UACC-257 melanoma
[56] = tested on: COLO 205 colon
[57] = tested on: HCC-2998 colon
[58] = tested on: SF-268 CNS
[59] = tested on: RXF-631 renal

Measured: TGI

N#CC1CC(c2ccccc2)Nc2cc(Cl)ccc2N1 (stereo not given)
> 83.4 µM: [56]
97.3 µM: [11]
21.7 µM: [20]
> 100 µM: [2] | [3] | [4] | [5] | [6] | [7] | [8] | [9] | [10] | [13] | [14] | [16] | [17] | [18] | [21] | [22] | [23] | [24] | [25] | [26] | [27] | [28] | [29] | [30] | [31] | [32] | [33] | [36] | [37] | [38] | [39] | [40] | [41] | [42] | [43] | [44] | [45] | [46] | [47] | [48] | [49] | [51] | [52] | [53] | [54] | [55] | [57] | [58]
92 µM: [34]
98.7 µM: [12]
> 76.2 µM: [15]
57.1 µM: [35]
59.8 µM: [19]
> 83.7 µM: [50]
> 89.2 µM: [1]

C[C@H](C(=O)O)C(=O)NC(=O)N(Cc1ccccc1)N=O
> 100 µM: [1] | [3] | [4] | [5] | [6] | [7] | [9] | [10] | [11] | [13] | [14] | [15] | [16] | [17] | [18] | [21] | [22] | [23] | [24] | [25] | [26] | [27] | [28] | [29] | [30] | [31] | [32] | [34] | [35] | [36] | [37] | [38] | [39] | [40] | [41] | [42] | [43] | [45] | [46] | [47] | [48] | [49] | [51] | [52] | [53] | [54] | [55] | [56] | [57] | [58]
0.0783 µM: [8]

CCc1cccc(CC)c1NC(=O)/C(Cl)=C(/Cl)C(=O)O
> 67.3 µM: [2]
48.8 µM: [7]
> 75.9 µM: [57]
49.5 µM: [8]
31.1 µM: [5]
> 94.9 µM: [47]
> 86.9 µM: [45]
> 85.8 µM: [38]
> 56.2 µM: [27]
47.3 µM: [18]
> 100 µM: [1] | [6] | [10] | [22] | [23] | [25] | [29] | [33] | [40] | [41] | [46] | [52]
> 69.8 µM: [16]
47.2 µM: [12]
66.5 µM: [50]
> 71 µM: [9]
29.1 µM: [20]
> 81.6 µM: [43]
48.1 µM: [35]
33.3 µM: [14]
48.3 µM: [55]
> 89.6 µM: [48]
53.7 µM: [15]
49.2 µM: [3]
41.4 µM: [44]
46.5 µM: [24] | [34]
20.9 µM: [30]
64.1 µM: [58]
65.8 µM: [53]
46.8 µM: [26]
50.9 µM: [54]
50.4 µM: [32]
30.3 µM: [56]
50.3 µM: [31]
50.2 µM: [28]
49.1 µM: [17]
32.6 µM: [4]
37.3 µM: [13]
> 79.4 µM: [51]
40.9 µM: [11]
47.6 µM: [39]
> 68.5 µM: [21]
> 66.7 µM: [37]
45.9 µM: [36]
> 73.6 µM: [19]
36.7 µM: [49]
35.9 µM: [42]

CCOC(=O)C1S(=O)(=O)OCCOS1(=O)=O
> 100 µM: [1] | [2] | [3] | [4] | [5] | [6] | [7] | [10] | [14] | [15] | [17] | [18] | [19] | [20] | [21] | [22] | [23] | [24] | [25] | [26] | [27] | [28] | [30] | [31] | [32] | [34] | [35] | [36] | [37] | [38] | [42] | [43] | [44] | [45] | [46] | [47] | [48] | [49] | [50] | [51] | [52] | [53] | [54] | [59] | [55] | [56] | [57] | [58]
